Results on two compounds are retold here after publication PMC8225008, “Development of Non-Ethoxypropanoic Acid Type Cryptochrome Inhibitors with Circadian Molecular Clock-Enhancing Activity by Bioisosteric Replacement” (Pharmaceuticals, 2021).

For one series, the system named is E-box-LUC reporter. The experiment in a line: E-box-LUC luciferase reporter assay, dose-response in stably transfected NIH3T3 cells. In kind it is cell-based. Particulars: Mus musculus, E-box-LUC reporter activity, NIH3T3, 36 h; for Emax: maximum response as a percentage of the vehicle-treated group, read-out: Max (%). Here is the method:
(§1) Materials for cell culture were purchased from Thermo Fisher Scientific, unless otherwise stated. NIH3T3 and HEK293T cells were maintained in Dulbecco’s modified Eagle medium supplemented with 5% fetal bovine serum and 100 U/mL penicillin/streptomycin in a humidified atmosphere containing 5% CO2 at 37 °C. Plasmids and transfection experiments for luciferase reporter assay were described in our previous report. For dose-response experiments, mouse NIH3T3 cells stably transfected with an E-box-LUC reporter were plated in 12-well culture plates, treated as indicated for 36 h, and subjected to luciferase assay. For transient transfections, we seeded HEK293T cells in 12-well culture plates and used Lipofectamine® 3000 reagent to transfect cells with the E-box-LUC reporter and the indicated clock gene expression plasmids together with a thymidine kinase promoter-driven Renilla luciferase (pRL-TK) plasmids. We kept total DNA levels constant by adding an empty pcDNA3.1 plasmid. After 24 h of transfection, cells were treated with vehicle (0.1% DMSO) or chemical compounds at various concentrations for 36 h. Cell extracts were prepared by incubating cells in 0.3 mL reporter lysis buffer for 15 min at room temperature. Luciferase activity was measured with a commercial dual luciferase assay kit (Promega, Madison, WI, USA).
(§2) The EC50 values for luciferase reporter assay were calculated based on a logistic four-parametric equation using the mean values of intrinsic activation (SigmaPlot 10.0; Systat Software Inc., San Jose, CA, USA). The IC50 and t1/2 values for the cytochrome P450 inhibition assay and metabolic stability test were calculated by WinNonlin software (Pharsight, Mountain View, CA, USA). Pharmacokinetic parameters were calculated using non-compartmental analysis (WinNonlin v.8.3; Pharsight, Mountain View, CA, USA). Kinetic and equilibrium constants for SPR analysis were obtained by global fitting of the Langmuir 1:1 bimolecular kinetic model (ProteOn Manager v.3.1.0.6, Bio-Rad, Hercules, CA, USA). Circadian molecular clock-enhancing activities were expressed as means ± SE and statistically evaluated by Student’s t-test or one-way analysis of variance (ANOVA) followed by Newman–Keuls multiple comparison test for post hoc comparisons. The significance level for the analyses was set at p < 0.05.
On the technique in general: Reporter assays use an easily measured gene product as a stand-in for the process of interest.

The nature of series [1]: Metabolic stability test in pooled human liver microsomes. In kind it is in vitro ADME. Particulars: pooled HLMs 1.0 mg/mL, 1 μM compound, NADPH generating system, read-out: t1/2 in HLMs. As to the method:
The metabolic stability of KS15, 5d, or 2d was evaluated using pooled HLMs. Pooled HLMs (1.0 mg/mL), a potassium phosphate buffer, and a test compound (1 μM) were pre-incubated (37 °C, 5 min). To initiate the reaction, the NADPH generating system was added to the samples and incubated for specific time points (0, 5, 15, 20, 45, and 60 min). Then, aliquots were taken and reactions terminated in acetonitrile containing IS. After centrifugation, supernatants were analyzed using LC-MS/MS to determine KS15, 5d, or 2d concentrations in samples. Analyte separation was performed using a Kinetex C18 column (100 mm × 2.1 mm, 2.6 μm ID., Phenomenex). The mobile phase solvent A was 0.1% formic acid in water, and solvent B was 0.1% formic acid in acetonitrile. Gradient separation was performed as follows: 0–3 min (10–90% B) and 3.1–8 min (10% B). The flow rate was 0.2 mL/min, and the run time was 8 min for each sample. Electrospray ionization was conducted in positive ion mode at 4 kV. […] Quantitation was performed in the SRM of the [M+H]^+ ion and the related product ion for each test compound and IS: KS-15 (m/z 420 > 169, CE 30 eV), 5d (m/z 359 > 206, CE 20 eV), 2d (m/z 345 > 192, CE 22 eV), and IS (m/z 295 > 100, CE 17 eV).
as §2, with “Kinetic and equilibrium constants for SPR analysis were obtained by global fitting of the Langmuir 1:1 bimolecular kinetic model (ProteOn Manager v.3.1.0.6, Bio-Rad, Hercules, CA, USA).” left out, “The significance level for the analyses was set at p < 0.05.” left out
For orientation: Liver microsomes are a subcellular fraction often used to study metabolism.

The subject of series [2] is Per2-luciferase knock-in (Per2-Luc-KI) fibroblast cultures. Briefly: Real-time bioluminescence monitoring of DEX-synchronized Per2-Luc-KI fibroblast cultures. The following applies: 20 μM, DEX-synchronized Per2-Luc-KI fibroblasts. In kind it is cell-based, mouse. As to the method: For real-time bioluminescence monitoring, we used mouse embryonic fibroblast (MEF) cultures established from Per2-LUC-KI mice. […] The medium was then replaced with a recording medium containing 0.1 mM D-luciferin (Promega) along with vehicle (0.1% DMSO), KS15 (20 μM), 5d (20 μM), or 2d (20 μM). Light emission for 2 min at intervals of 20 min was integrated using a dish-type wheeled luminometer (Kronos-Dio, ATTO Cooperation, Tokyo, Japan). Background-subtracted bioluminescence profiles were analyzed using Cosinor analysis software (available at http://www.circadian.org, last accessed on 19 May 2021).
as §2

For another series, the target named is T1, hCRY1 (Homo sapiens, UniProt Q16526).
T1 sequence (Q16526 1-586): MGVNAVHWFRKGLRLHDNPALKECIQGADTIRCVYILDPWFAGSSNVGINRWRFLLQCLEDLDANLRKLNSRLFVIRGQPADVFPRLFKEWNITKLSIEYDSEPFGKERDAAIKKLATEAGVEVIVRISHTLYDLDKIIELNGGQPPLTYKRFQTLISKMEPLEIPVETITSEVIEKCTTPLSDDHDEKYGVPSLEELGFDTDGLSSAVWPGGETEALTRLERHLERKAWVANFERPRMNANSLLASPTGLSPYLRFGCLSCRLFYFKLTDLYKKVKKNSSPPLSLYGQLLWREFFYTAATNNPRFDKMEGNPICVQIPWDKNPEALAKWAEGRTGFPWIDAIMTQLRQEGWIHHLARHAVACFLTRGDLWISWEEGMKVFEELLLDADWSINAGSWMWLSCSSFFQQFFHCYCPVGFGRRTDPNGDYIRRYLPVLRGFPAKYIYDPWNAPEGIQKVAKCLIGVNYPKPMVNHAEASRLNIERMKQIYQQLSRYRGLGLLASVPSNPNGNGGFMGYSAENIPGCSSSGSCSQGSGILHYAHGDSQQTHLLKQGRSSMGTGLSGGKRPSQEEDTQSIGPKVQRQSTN
Briefly: Suppressive action of CRY1 on CLOCK:BMAL1-activated E-box-LUC reporter activity in transiently transfected HEK293T cells. In kind it is cell-based. Further details: expressed in transfected cells; host or cells: HEK293T. Particulars: co-expression of human CRY1, 36 h treatment. As to the method: as §1

In general, EC50 refers to the concentration needed to bring the measured effect to its halfway point. Low values mean a more potent agent, high ones a less potent agent. Take `CC(=NOCc1ccc([N+](=O)[O-])cc1)c1cccc(OCC(=O)O)c1` [Compound 2d, 2-(3-(1-(((4-nitrobenzyl)oxy)imino)ethyl)phenoxy)acetic acid]: in the series on E-box-LUC reporter, the response was half-maximal at 10.2 µM (EC50) and the Emax was 161%. For the same compound, the half-life at 1 μM in series [1] was more than 60 min. In addition, in series [2], the “Amplitude of cyclic Per2 expression” value was “significantly augmented the amplitude” and the “Robustness of the rhythm (Cosinor regression)” value is “barely affect the robustness”. Moreover, the “Effect on CRY1-suppressed CLOCK:BMAL1-activated E-box-mediated transcription” value at hCRY1 is “dose-dependently restored E-box-mediated transcriptional activities”.

Regarding `COC(=O)COc1cccc(C(C)=NOCc2ccc([N+](=O)[O-])cc2)c1` [Compound 5d, Methyl 2-(3-(1-(((4-nitrobenzyl)oxy)imino)ethyl)phenoxy)acetate], in the series on E-box-LUC reporter, a half-maximal response (EC50) required 6.44 µM and the Emax was 193%. The half-life at 1 μM in series [1] came out at 2.4 min. Besides, in series [2], the “Amplitude of cyclic Per2 expression” value is on record as “significantly augmented the amplitude” and the “Robustness of the rhythm (Cosinor regression)” value is recorded as “barely affect the robustness”. In addition, the “Effect on CRY1-suppressed CLOCK:BMAL1-activated E-box-mediated transcription” value on hCRY1 was “dose-dependently restored E-box-mediated transcriptional activities”.
